According to ChEMBL document CHEMBL1201862, “PubChem BioAssay data set” (2004):
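Each compound was tested at five concentrations against cells in 96-well plates for 48 hours. GI50 marks 50% less growth.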 Activity calls are given as the source filed them. No stated cut-off is given here; in the data, active = GI50 up to about 1.1 µM and inactive = higher.

Tests used:
Experiment in all cases: NCI-60 cell line screen, 48 h
A498 = test system: A498
ACHN = test system: ACHN
CAKI-1 = test system: CAKI-1
CCRF-CEM = test system: CCRF-CEM
COLO 205 = test system: COLO 205
HCT-15 = test system: HCT-15
K562 = test system: K562
KM12 = test system: KM12
MDA-MB-231 = test system: MDA-MB-231
MOLT-4 = test system: MOLT-4
NCI-H522 = test system: NCI-H522
OVCAR-4 = test system: OVCAR-4
OVCAR-8 = test system: OVCAR-8
SF-295 = test system: SF-295
SK-MEL-28 = test system: SK-MEL-28
SNB-19 = test system: SNB-19
UACC-257 = test system: UACC-257
UACC-62 = test system: UACC-62
SF-268 = test system: SF-268
T47D = test system: T47D

Structure (SMILES)	GI50 (A498)	GI50 (ACHN)	GI50 (CAKI-1)	GI50 (CCRF-CEM)	GI50 (COLO 205)	GI50 (HCT-15) [µM]	GI50 (K562)	GI50 (KM12)	GI50 (MDA-MB-231)	GI50 (MOLT-4)	GI50 (NCI-H522)	GI50 (OVCAR-4)	GI50 (OVCAR-8)	GI50 (SF-295)	GI50 (SK-MEL-28)	GI50 (SNB-19)	GI50 (UACC-257)	GI50 (UACC-62)	GI50 (SF-268)	GI50 (T47D)
COc1ccc(C2=NOC(N)(c3ccc(OC)cc3)C2)cc1 (stereo not drawn)	29 µM (inactive)	> 100 µM (inactive)	> 100 µM (inactive)	> 100 µM (inactive)	> 100 µM (inactive)	> 100	> 100 µM (inactive)	30.8 µM (inactive)	81.5 µM (inactive)	> 100 µM (inactive)	> 100 µM (inactive)	86.5 µM (inactive)	> 100 µM (inactive)	> 100 µM (inactive)	> 100 µM (inactive)	> 100 µM (inactive)	> 100 µM (inactive)	> 100 µM (inactive)		
N#CCCN(CCC#N)c1ccc(/C=C(/NC(=O)c2cc([N+](=O)[O-])ccc2Cl)C(=O)N=[N+]=[N-])cc1	> 100 µM (inactive)	> 100 µM (inactive)	> 100 µM (inactive)	> 100 µM (inactive)	> 100 µM (inactive)	> 100	> 100 µM (inactive)	> 100 µM (inactive)		> 100 µM (inactive)	> 100 µM (inactive)	> 100 µM (inactive)	> 100 µM (inactive)	> 100 µM (inactive)	> 100 µM (inactive)	> 100 µM (inactive)	> 100 µM (inactive)	> 100 µM (inactive)	> 100 µM (inactive)	
COc1cc(C)cc2c1c(=O)c1ccccc1n2C	43.3 µM (inactive)	36 µM (inactive)	54.8 µM (inactive)	24.4 µM (inactive)	27.2 µM (inactive)	36.4	18.2 µM (inactive)	34.4 µM (inactive)	53.5 µM (inactive)	31.3 µM (inactive)	34 µM (inactive)	35.3 µM (inactive)	40.1 µM (inactive)	20.8 µM (inactive)	42.6 µM (inactive)	54.8 µM (inactive)	40.2 µM (inactive)	33.7 µM (inactive)	49.7 µM (inactive)	
NC(=O)C(N)Cc1ccc(O)cn1 (stereo not drawn)	> 100 µM (inactive)	> 100 µM (inactive)	> 100 µM (inactive)	> 100 µM (inactive)	> 100 µM (inactive)	> 100	> 100 µM (inactive)	> 100 µM (inactive)	> 100 µM (inactive)	> 100 µM (inactive)	> 100 µM (inactive)	> 100 µM (inactive)	> 100 µM (inactive)	> 100 µM (inactive)	> 100 µM (inactive)	> 100 µM (inactive)	> 100 µM (inactive)		> 100 µM (inactive)	
c1ccc(CN(Cn2cccn2)Cn2cccn2)nc1	> 100 µM (inactive)	> 100 µM (inactive)	> 100 µM (inactive)	> 100 µM (inactive)	> 100 µM (inactive)	> 100	> 100 µM (inactive)	> 100 µM (inactive)		> 100 µM (inactive)	> 100 µM (inactive)	> 100 µM (inactive)	> 100 µM (inactive)	> 100 µM (inactive)	> 100 µM (inactive)	> 100 µM (inactive)	> 100 µM (inactive)	43.8 µM (inactive)	> 100 µM (inactive)	
O=C(Nc1ccccc1)c1cc(S(=O)(=O)Nc2n[nH]c(=O)[nH]2)c(SSc2cc(Cl)c(C(=O)Nc3ccccc3)cc2S(=O)(=O)Nc2n[nH]c(=O)[nH]2)cc1Cl	> 100 µM (inactive)	> 100 µM (inactive)	> 100 µM (inactive)	> 100 µM (inactive)	> 100 µM (inactive)	> 100	55.5 µM (inactive)	> 100 µM (inactive)	> 100 µM (inactive)	> 100 µM (inactive)	> 100 µM (inactive)	> 100 µM (inactive)	> 100 µM (inactive)	> 100 µM (inactive)	> 100 µM (inactive)	> 100 µM (inactive)	> 100 µM (inactive)		> 100 µM (inactive)	
O=C1C2C(C(=O)N1c1ccccc1)C1(Br)c3ccccc3C2(Br)C2C(=O)N(c3ccccc3)C(=O)C21 (stereo not drawn)	21.9 µM (inactive)	18.1 µM (inactive)	64 µM (inactive)	26.6 µM (inactive)	> 31.6 µM (inactive)	23.8	6.27 µM (inactive)	16.6 µM (inactive)		20.6 µM (inactive)	> 10 µM (inactive)	7.21 µM (inactive)	> 100 µM (inactive)	> 100 µM (inactive)	> 31.6 µM (inactive)	> 31.6 µM (inactive)	> 31.6 µM (inactive)	23.7 µM (inactive)	27.7 µM (inactive)	
Cc1ccc(/N=N/C(=NNC(=O)c2ccc(C)cc2)c2ccc(N(C)C)cc2)cc1		66.4 µM (inactive)	23 µM (inactive)		12.3 µM (inactive)	28.7	24.9 µM (inactive)	16.9 µM (inactive)	50.2 µM (inactive)	33 µM (inactive)	20.9 µM (inactive)	18.5 µM (inactive)	31.8 µM (inactive)	26.4 µM (inactive)	36 µM (inactive)	24.8 µM (inactive)	21.9 µM (inactive)	10.8 µM (inactive)	38.5 µM (inactive)	71.3 µM (inactive)
CN1CCN(C(=S)N(C(=O)c2cccs2)C2CCCCC2)CC1		> 100 µM (inactive)		> 10 µM (inactive)	> 100 µM (inactive)	> 100	> 100 µM (inactive)	> 100 µM (inactive)	> 100 µM (inactive)	> 10 µM (inactive)	> 100 µM (inactive)	> 100 µM (inactive)	> 100 µM (inactive)	> 10 µM (inactive)	> 100 µM (inactive)	> 100 µM (inactive)	> 100 µM (inactive)	> 100 µM (inactive)	> 100 µM (inactive)	> 100 µM (inactive)
CC(NC(=O)C(CC(=O)OCc1ccccc1)NC(=O)OCc1ccccc1)c1ccccc1 (stereo not drawn)		67.5 µM (inactive)	83.4 µM (inactive)		> 100 µM (inactive)	> 100	> 100 µM (inactive)	> 100 µM (inactive)	79.3 µM (inactive)	> 100 µM (inactive)	37.4 µM (inactive)		> 100 µM (inactive)	55.1 µM (inactive)	90.2 µM (inactive)	48 µM (inactive)	> 10 µM (inactive)	37.8 µM (inactive)	> 100 µM (inactive)	> 100 µM (inactive)
CC(C)N(C(C)C)P(OCCC#N)OC1CC(n2cnc3c(=O)[nH]cnc32)OC1COC(=O)NCCCCCCNC(=O)OC(C)(C)c1ccc(-c2ccccc2)cc1 (stereo not drawn)	> 100 µM (inactive)	38.7 µM (inactive)	39.4 µM (inactive)	18.5 µM (inactive)	17.4 µM (inactive)	22.6	13.7 µM (inactive)	18.7 µM (inactive)		18.7 µM (inactive)	15.6 µM (inactive)	19.7 µM (inactive)	34.4 µM (inactive)	52.1 µM (inactive)	34.3 µM (inactive)	21.7 µM (inactive)	15.2 µM (inactive)	18.4 µM (inactive)	29.6 µM (inactive)	
[N-]=[N+]=NC1=C(C(=O)c2ccccc2)C(=O)c2cccc3cccc1c23		37.7 µM (inactive)	40.6 µM (inactive)	21.4 µM (inactive)	> 100 µM (inactive)		54.5 µM (inactive)	25.1 µM (inactive)	23.4 µM (inactive)	23 µM (inactive)	23 µM (inactive)	39.5 µM (inactive)	37 µM (inactive)	42.3 µM (inactive)	66.7 µM (inactive)	28.1 µM (inactive)	48.8 µM (inactive)	31.3 µM (inactive)	17.1 µM (inactive)	78.3 µM (inactive)
Cc1c(CCCl)c(=O)n2c([nH]c3ccccc32)c1C#N		1.43 µM (inactive)	1.46 µM (inactive)	0.402 µM (active)	0.148 µM (active)	1.57	1.34 µM (inactive)	1.75 µM (inactive)	1.52 µM (inactive)	0.237 µM (active)		1.77 µM (inactive)	1.6 µM (inactive)	1.66 µM (inactive)	1.87 µM (inactive)		2.73 µM (inactive)	1.34 µM (inactive)	1.95 µM (inactive)	1.51 µM (inactive)
CC1=C/C(=N\OCC(=O)O)CC(c2ccc(C(C)C)cc2)C1 (stereo not drawn)			> 100 µM (inactive)	34.4 µM (inactive)	76.7 µM (inactive)	23.2	32.3 µM (inactive)	48.5 µM (inactive)	54.8 µM (inactive)	16.3 µM (inactive)	23.2 µM (inactive)		27.9 µM (inactive)	39.8 µM (inactive)			43 µM (inactive)	33.7 µM (inactive)		65.3 µM (inactive)
CSc1ccc2c(cc1=O)C(NC(=O)c1ccccc1)CCc1cc(O)c(O)c(O)c1-2 (stereo not drawn)	22.3 µM (inactive)	37.6 µM (inactive)	27.6 µM (inactive)	6.73 µM (inactive)	23.2 µM (inactive)	18.1	10.9 µM (inactive)	4.81 µM (inactive)		21.3 µM (inactive)	17.1 µM (inactive)	16.3 µM (inactive)	37.4 µM (inactive)	4.22 µM (inactive)	24.5 µM (inactive)	5.69 µM (inactive)	15.3 µM (inactive)	5.05 µM (inactive)	22.9 µM (inactive)	
CCN(CC)CCNc1ccc2nnn3c4ccc(C)cc4c(=O)c1c23	15.5 µM (inactive)	5.45 µM (inactive)	13.2 µM (inactive)	4.16 µM (inactive)	5.87 µM (inactive)	9.62	8.24 µM (inactive)	4.56 µM (inactive)		3.07 µM (inactive)	7.67 µM (inactive)	12.1 µM (inactive)	5.22 µM (inactive)	5.02 µM (inactive)	15.5 µM (inactive)	12.7 µM (inactive)	13.2 µM (inactive)	14 µM (inactive)	10.2 µM (inactive)	
